For series [1], the system named is CEM T cells. Briefly: Cytotoxicity with calcein-AM. Type of series: cell-based. The settings on record: in words. The procedure: To assess cytotoxicity with calcein, media was removed and the cells washed with PBS in order to remove serum esterase activity that may cause an increase in fluorescence through the hydrolysis of calcein-AM. Cells were then supplemented with 0.2 μM calcein-AM (Molecular Probes, Invitrogen) for 10 min at 37°C. Fluorescence was measured using the luminescence spectrometer described above implementing 495 nm excitation and 515 nm emission filters.

The subject of series [2] is HIV-1 89.6. Put plainly: Antiviral efficacy in HIV-1 89.6-infected humanized NSG mice. The series is classed as in vivo. To be noted: 48 hrs. As to the method:
NOD.Cg-Prkdcscid Il2rgtm1Wjl/SzJ (NSG) mice initially purchased from Jackson Laboratories were bred and maintained in the Animal Core Facility at George Mason University (Manassas, VA). NSG mice were generated by i.p. injection of cryopreserved human CD34+ hematopoietic stem progenitor cells (HSPC) (500,000 cells per mouse) isolated from the autologous fetal liver. Anesthetized mice were inoculated by direct injection 16 weeks after implantation with 50 μl of HIV-1 89.6 (1,000 TCID50) or RPMI 1640 medium (mock infection). […] Blood was collected by tail vein after 48 hrs and transferred into microcentrifuge tubes containing 330 mM EDTA. Each data point represents the blood from a single animal. Plasma was removed after low-speed centrifugation for 5 min at room temperature and stored at -80°C. Viral RNA was extracted from plasma using the QIAamp Viral RNA Mini Kit (Qiagen). For quantitative analysis of HIV-1 RNA, total RNA was isolated from blood specimens of HIV-1-infected humanized mice. RNA was isolated using Trizol Reagent (Invitrogen, Carlsbad, CA) according to the manufacturer's protocol. A total of 1.0 μg of RNA was treated with 0.25 mg/ml DNase I RNase-free (Roche, Mannheim, Germany) for 60 min in the presence of 5 mM MgCl2, followed by heat inactivation at 65 °C for 15 min. A 200–250 ng aliquot of total RNA was used to generate cDNA with the GoScript Reverse Transcription System (Promega, Madison, WI) using TAR-specific reverse primer TAR+59R: 5′- […] -3′. Subsequent quantitative real-time PCR analysis was performed with 2 μl of undiluted RT reaction mixes. The iQ Supermix (Bio-Rad, Hercules, CA) was used with the primers specific for (1) HIV-1 TAR: TARfll-F: 5′-[…]-3′ and TAR+59R as above; (2) HIV-1 TAR-gag: Gag 1625R: 5’- […] -3’ and TAR+59R as above. Real-time PCR reactions were carried out in triplicate.

Series [3] relates to CEM T cells. Put plainly: Cellular permeability assay by LC/FT-MS. The series is classed as in vitro ADME. The settings on record: 10 μM, 24 hrs; for CEM T cell permeability, % of Total, Cells: accumulation in cell lysate. The procedure:
CEM T cells were seeded in 6-well plates (0.5 × 10^6 cells/ml) and treated by 10 μM of the indicated compounds. Two samples were generated for each compound (in triplicates) obtained from cellular lysate and media sample. Cell culture media samples (100 μl) were collected from each well after 24 hrs of incubation and total protein was precipitated by the addition of 400 μl cold acetone. […] To obtain cell lysates, the cells were suspended in 300 μl cold whole cell lysis buffer (50 mM Tris-HCl, pH 7.5, 0.5 M NaCl, 1% NP-40, 0.1% SDS) and sonicated. A 100 μl aliquot of the cell lysate was combined with 400 μl cold acetone to precipitate proteins. All samples were centrifuged at 13,000 × g for 5 min. Supernatants containing compounds and their metabolites were collected and evaporated to dryness on SpeedVac concentrator. The dry pellet was reconstituted in 50 μl acetonitrile for LC/FT-MS analysis.

Series [4] concerns the target T1, QuantiLum Recombinant Luciferase (Photinus pyralis, UniProt P08659).
T1 construct: purchased
Put plainly: Purified luciferase inhibition in vitro. Type of series: biochemical. To be noted: for effect on luciferase activity in vitro: in words, 1E7-03 at concentrations below 100 μM; for pIC50: purified luciferase, room temperature, 10 min. As to the method: QuantiLum Recombinant Luciferase (20 ng/ml in PBS) was added into 96-well plate (100 μl/well) and incubated with serial dilutions of the compounds or vehicle (DMSO) under room temperature for 10 min. 100 μl of reconstituted luciferase buffer (Luclite Kit, Perkin Elmer) was added to each well, incubated for another 10 min and luminescence was measured using Glo-Max Microplate Multimode reader (Promega).

Series [5] can be described thus: 1E7-03 degradation in ferret plasma. Type of series: in vitro ADME. The settings on record: 37°C. The procedure:
(§1) 1E7-03 dissolved in DMSO (10 mM stock solution) was mixed with mouse plasma (Sigma-Aldrich), guinea pig plasma (Sigma-Aldrich), ferret plasma (BioreclamationIVT), monkey plasma (courtesy of Binhua Ling, PhD, Tulane University) and human plasma (collected from heathy volunteer by the Center for Sickle Cell Disease at Howard University) to the final concentration of 10 μM and incubated at 37°C. Aliquots were collected at different time points for up to 24 hrs. The resulting sample (60 μl) was mixed with 240 μl of cold acetone, vortexed for 2 min, kept at –20°C for 30 min, and then the precipitated protein was removed by centrifugation at 13,000 × g for 5 min. The supernatant was transferred to a clean test tube and evaporated to dryness using a SpeedVac concentrator. The residue reconstituted in 60 μl of acetonitrile for LC/FT-MS analysis. All experiments were run parallel in triplicates.

Series [6] is described as follows: Stability in human liver microsomes. Type of series: in vitro ADME. The settings on record: 1 hr; for % of Total (Liver microsomes, Human): 10 μM 1E7-03, 37°C, 1E7-03 remaining and DP1, DP3 formed. The procedure: The metabolic stability of 1E7-03 was also investigated using a pool of human and mouse liver microsomes (HMS9PL, MSS9PL, Thermo Scientific) following manufacturer's instructions. In brief, incubations were conducted at 37 ± 1°C in mixtures containing 5 μl of human or mouse liver microsomes (20 mg/ml), 183 μl of potassium phosphate buffer (pH 7.4, 100 mM) and 2 μl of 1E7-03 (10 mM sock solution of 1E7-03 in DMSO was diluted into 1 mM by PBS). The mixture was pre-incubated for 5 min, then initiated the reactions with the addition of 10 μl 20 mM NADPH (Sigma Aldrich). The reactions were terminated after 1 hr incubation by adding 800 μl cold acetone. The mixture was kept at 4°C for 30 min, and the precipitated protein was removed by centrifugation (13, 000 g for 10 min at 4°C). A 250 μl aliquot of supernatant was transferred to a clean test tube and evaporated to dryness using a SpeedVac concentrator. The residue was reconstituted in 50 μl of acetonitrile with 0.1% FA for LC/FT-MS analysis.
In general terms: Microsomes from liver hold many membrane-bound enzymes, among them those of drug oxidation.

Series [7] can be described thus: 1E7-03 degradation in guinea pig plasma. The series is classed as in vitro ADME. The settings on record: 10 μM, 37°C, 4 hrs. As to the method:
as §1

The test system of series [8] is CEM T cells. Put plainly: Cell viability, trypan blue-based assay. To be noted: 24 h; for effect on cell viability: up to 180 μM, in words. As to the method:
CEM T cells were cultured in 96-well plates at 37°C and incubated with the indicated compound concentrations for 24 hrs. Cell viability was determined using trypan blue-based assay.

The nature of series [9]: 1E7-03 degradation in human plasma. The series is classed as in vitro ADME. To be noted: 37°C. The procedure: as §1

pIC50: −log10 of the molar value. Values joined by “and” are separate entries in the source; they are usually repeats but may differ in a detail not shown here. Identical values can stand only once.

T1 sequence (P08659 whole entry): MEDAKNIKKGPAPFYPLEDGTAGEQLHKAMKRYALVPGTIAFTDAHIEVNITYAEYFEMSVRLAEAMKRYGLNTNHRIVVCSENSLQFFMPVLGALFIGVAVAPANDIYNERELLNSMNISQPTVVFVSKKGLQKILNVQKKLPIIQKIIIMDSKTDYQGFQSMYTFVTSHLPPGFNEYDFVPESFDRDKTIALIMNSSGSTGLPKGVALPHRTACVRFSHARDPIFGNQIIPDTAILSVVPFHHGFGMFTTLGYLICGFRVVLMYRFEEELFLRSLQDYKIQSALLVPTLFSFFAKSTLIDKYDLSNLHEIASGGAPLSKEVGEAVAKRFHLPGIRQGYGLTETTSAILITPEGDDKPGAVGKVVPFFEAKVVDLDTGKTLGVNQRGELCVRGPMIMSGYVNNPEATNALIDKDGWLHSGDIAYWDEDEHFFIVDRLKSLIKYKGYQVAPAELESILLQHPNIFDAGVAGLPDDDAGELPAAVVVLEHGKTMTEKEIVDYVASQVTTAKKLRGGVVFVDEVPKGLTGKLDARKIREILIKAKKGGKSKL

Turning to `COc1ccc(/C=C2\CCCc3c2nc2ccccc2c3C(=O)OC(C)C(=O)OC(C)(C)C)cc1OC` (centres unmarked) [DP1-07], the “toxicity in CEM T cells compared to 1E7-03” value in [1] is on record as “reduced toxicity”. Besides, the “fold reduction of HIV TAR RNA” value in series [2] (single i.p. dose 3 mg/kg, Figure 7G) is reported as 3.8 fold. Further, the “CEM T cell permeability, % of Total, Cells” value in series [3] (37°C) was 2.7% and 2.73%. Also, in series [3] (37°C, amount in media), the “CEM T cell permeability, % of Total, Media” value stood at 97.27%. In addition, the “effect on luciferase activity in vitro” value in series [4] is given as “did not inhibit”.
As for `CCNC(=O)NC(=O)C(C)OC(=O)c1c2c(nc3ccccc13)/C(=C/c1ccc(OC)c(OC)c1)CC2` (centres unmarked) [1E7-03], in series [5], the share remaining (as a rule, the share of the starting amount still present when the sample was taken) at 24 h, 10 µM was greater than 50%. Also, the “% of Total (Liver microsomes, Human)” value in series [6] was 59.39%. In addition, the “% of 1E7-03 degraded and converted into DP1” value in series [6] (human liver microsomes) came out at 39%. Further, in [2] (single i.p. dose, 1E7-03 3 mg/kg, F07#13 […], vs untreated mice, Figure 6A), the “fold reduction of HIV TAR RNA” value is greater than 40 fold. The “fold reduction of HIV TAR-gag RNA” value in [2] (single i.p. dose, 1E7-03 3 mg/kg, F07#13 […], vs untreated mice, Figure 6B) is listed as greater than 39 fold. The “% of compound degraded” value in [7] was “about 80%”. In series [8] (highest tested 180 μM), the viability reduction result is “about 30%”. Also, the “CEM T cell permeability, % of Total, Cells” value in series [3] (37°C) came out at 3%. The share remaining at 24 h, 10 µM in [9] is greater than 50%. For the same compound, in [4], the “effect on luciferase activity in vitro” value is on record as “no effect” and the pIC50 (usually −log10 of the IC50, conventionally taken in molar units) is less than 3.74.
Turning to `COc1ccc(/C=C2\CCc3c2nc2ccccc2c3C(=O)O)cc1OC` [DP3], the “% of Total (Liver microsomes, Human)” value in series [6] was found to be 1.27%. Moreover, the “effect on cell viability” value in series [8] was “no effect”. In series [4], the pIC50 is 5.14.
As for `COc1ccc(/C=C2\CCc3c2nc2ccccc2c3C(=O)OC(C)C(=O)O)cc1OC` (centres unmarked) [DP1], the “% of Total (Liver microsomes, Human)” value in series [6] is given as 39.34%. Also, in series [8], the “effect on cell viability” value was “no effect”. For the same compound, the “times less efficient cellular accumulation than 1E7-03” value in series [3] (CEM T cells) is recorded as “more than 10 times”. Moreover, the pIC50 in [4] was 4.43.

These data come from paper PMC5652740, “Inhibition of HIV-1 infection in humanized mice and metabolic stability of protein phosphatase-1-targeting small molecule 1E7-03” (Oncotarget, 2017).
